The results in this text go back to patent publication US10947289B2, “Glyco-modified atrial natriuretic peptide” (priority 2013, dated 2021).

Data set [1] is described as follows: Detection of test substance in rat plasma by LC-MS/MS (Test Example 3). The format is in vivo. To be noted: rat plasma, 100 nmol/kg i.v., LC-MS/MS; time at which the test substance was finally detected. As to the method: Before the administration and 15, 30, 60, 90, 120, 180, and 240 minutes after the administration, blood was sampled (200 μL/sampling) over time from the jugular vein. The blood samples were immediately left on ice.
The collected blood samples were centrifuged at 5000 rpm at 4° C. for 5 minutes by use of a centrifuge (Sigma 4K15, rotor: Nr12130-H). The separated plasma samples were divided into two types (samples for PK measurement and for cGMP measurement) and stored at −80° C. until measurement.
An internal standard (20 μL (500 nM) of a stable isotope of hANP) and an acetic acid mixed solvent (AcOH/distilled water/DMSO=5/3/2, v/v/v) were added to 50 μL of each rat plasma sample prepared in (1) and then mixed therewith. The mixture was transferred to Amicon Ultra-0.5 50K (Millipore Corp., MA) and centrifuged at 14000 rpm at 15° C. for 30 minutes. The obtained filtrate was transferred to Amicon Ultra-0.5 3K (Millipore Corp., MA) and centrifuged again under the aforementioned conditions. The solution remaining on the filter was recovered and transferred to a 96-well deep well plate. The content of the test substance was measured by LC-MS/MS (LC: Shimadzu LC-10ADVP (Shimadzu Corp.), MS/MS: API 4000 QTrap (AB SCIEX)) to calculate the concentration in plasma. The time at which the test substance was finally detected is shown in the rightmost column of Table 2.

The target in another data set is T1, human GC-A (Homo sapiens, UniProt P16066).
T1 construct: expressed in transfected cells; host or cells: CHO cells
T1 sequence (P16066 33-1061): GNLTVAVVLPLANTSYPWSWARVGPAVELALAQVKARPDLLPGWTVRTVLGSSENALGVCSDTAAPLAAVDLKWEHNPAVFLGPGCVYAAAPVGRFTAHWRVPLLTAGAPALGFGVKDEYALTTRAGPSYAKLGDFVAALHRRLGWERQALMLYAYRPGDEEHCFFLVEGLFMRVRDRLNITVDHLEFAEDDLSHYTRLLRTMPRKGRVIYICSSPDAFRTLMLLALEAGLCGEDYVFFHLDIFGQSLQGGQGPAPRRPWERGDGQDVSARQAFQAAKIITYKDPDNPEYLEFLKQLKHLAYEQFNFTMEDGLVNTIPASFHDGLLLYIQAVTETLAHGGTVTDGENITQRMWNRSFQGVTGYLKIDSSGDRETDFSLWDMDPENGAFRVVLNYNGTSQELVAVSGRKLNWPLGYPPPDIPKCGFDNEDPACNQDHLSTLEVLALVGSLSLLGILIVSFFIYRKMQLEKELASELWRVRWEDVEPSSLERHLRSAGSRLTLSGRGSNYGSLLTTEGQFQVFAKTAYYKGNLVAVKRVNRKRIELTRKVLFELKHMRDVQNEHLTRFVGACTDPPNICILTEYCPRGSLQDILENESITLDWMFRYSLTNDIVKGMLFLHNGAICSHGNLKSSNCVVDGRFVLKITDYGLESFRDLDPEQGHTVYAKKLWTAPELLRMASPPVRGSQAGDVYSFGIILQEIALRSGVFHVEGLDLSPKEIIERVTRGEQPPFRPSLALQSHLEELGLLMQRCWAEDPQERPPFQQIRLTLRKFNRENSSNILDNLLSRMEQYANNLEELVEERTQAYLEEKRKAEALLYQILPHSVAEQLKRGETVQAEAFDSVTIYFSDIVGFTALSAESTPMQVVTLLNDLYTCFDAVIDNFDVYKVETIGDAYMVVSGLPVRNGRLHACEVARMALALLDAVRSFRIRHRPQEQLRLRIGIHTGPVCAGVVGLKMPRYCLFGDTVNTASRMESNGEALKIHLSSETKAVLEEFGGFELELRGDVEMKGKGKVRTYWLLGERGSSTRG
Description: cGMP elevating activity in CHO/human GC-A cells (Test Example 1). The format is cell-based. In outline:
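CHO cells stably expressing human GC-A, pre-incubated 10 min at room temperature in 1.6 mM IBMX/KRB, then exposed to test peptide 15 min in CO2 incubator. Lysate cGMP measured by HTRF. Activity (T/C) scaled so solvent-only = 0 and 1 nM ANP = 1.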

Consider `CC[C@H](C)[C@@H]1NC(=O)[C@H](CCCNC(=N)N)NC(=O)[C@H](CC(=O)O)NC(=O)[C@H](CCSC)NC(=O)[C@H](CCCNC(=N)N)NC(=O)CNC(=O)CNC(=O)[C@H](Cc2ccccc2)NC(=O)[C@@H](NC(=O)[C@H](CO)NC(=O)[C@H](CO)NC(=O)[C@H](CCCNC(=N)N)NC(=O)[C@H](CCCNC(=N)N)NC(=O)[C@H](CC(C)C)NC(=O)[C@H](CO)NC(=O)CCOCCOCCOCCOCCNC(=O)CO[C@@H]2O[C@H](CO)[C@@H](O[C@@H]3O[C@H](CO)[C@@H](O[C@@H]4O[C@H](CO[C@H]5O[C@H](CO)[C@@H](O)[C@H](O)[C@@H]5O[C@@H]5O[C@H](CO)[C@@H](O[C@@H]6O[C@H](CO[C@]7(C(=O)O)C[C@H](O)[C@@H](NC(C)=O)[C@H]([C@H](O)[C@H](O)CO)O7)[C@H](O)[C@H](O)[C@H]6O)[C@H](O)[C@H]5NC(C)=O)[C@@H](O)[C@H](O[C@H]5O[C@H](CO)[C@@H](O)[C@H](O)[C@@H]5O[C@@H]5O[C@H](CO)[C@@H](O[C@@H]6O[C@H](CO[C@]7(C(=O)O)C[C@H](O)[C@@H](NC(C)=O)[C@H]([C@H](O)[C@H](O)CO)O7)[C@H](O)[C@H](O)[C@H]6O)[C@H](O)[C@H]5NC(C)=O)[C@@H]4O)[C@H](O)[C@H]3NC(C)=O)[C@H](O)[C@H]2NC(C)=O)CSSC[C@@H](C(=O)N[C@@H](CC(N)=O)C(=O)N[C@@H](CO)C(=O)N[C@@H](Cc2ccccc2)C(=O)N[C@@H](CCCNC(=N)N)C(=O)N[C@@H](Cc2ccc(O)cc2)C(=O)O)NC(=O)CNC(=O)[C@H](CC(C)C)NC(=O)CNC(=O)[C@H](CO)NC(=O)[C@H](CCC(N)=O)NC(=O)[C@H](C)NC(=O)CNC1=O` [Compound 2-29, SG-PEG(3)-hANP(1-28)], for which the “Maximum time of detection after administration” value in data set [1] is 2 h.
The term EC50 denotes the concentration giving half of the maximal effect. Consider `CC[C@H](C)[C@@H]1NC(=O)[C@H](CCCNC(=N)N)NC(=O)[C@H](CC(=O)O)NC(=O)[C@H](CCSC)NC(=O)[C@H](CCCNC(=N)N)NC(=O)CNC(=O)CNC(=O)[C@H](Cc2ccccc2)NC(=O)[C@@H](NC(=O)[C@H](CO)NC(=O)[C@H](CO)NC(=O)[C@H](CCCNC(=N)N)NC(=O)[C@H](CCCNC(=N)N)NC(=O)[C@H](CC(C)C)NC(=O)[C@H](CO)NC(=O)CCOCCOCCOCCOCCNC(=O)[C@H](CCCCNC(=O)CCSCC(=O)NCCO[C@@H]2O[C@H](CO)[C@@H](O[C@@H]3O[C@H](CO)[C@@H](O[C@@H]4O[C@H](CO[C@H]5O[C@H](CO)[C@@H](O)[C@H](O)[C@@H]5O[C@@H]5O[C@H](CO)[C@@H](O[C@@H]6O[C@H](CO[C@]7(C(=O)O)C[C@H](O)[C@@H](NC(C)=O)[C@H]([C@H](O)[C@H](O)CO)O7)[C@H](O)[C@H](O)[C@H]6O)[C@H](O)[C@H]5NC(C)=O)[C@@H](O)[C@H](O[C@H]5O[C@H](CO)[C@@H](O)[C@H](O)[C@@H]5O[C@@H]5O[C@H](CO)[C@@H](O[C@@H]6O[C@H](CO[C@]7(C(=O)O)C[C@H](O)[C@@H](NC(C)=O)[C@H]([C@H](O)[C@H](O)CO)O7)[C@H](O)[C@H](O)[C@H]6O)[C@H](O)[C@H]5NC(C)=O)[C@@H]4O)[C@H](O)[C@H]3NC(C)=O)[C@H](O)[C@H]2NC(C)=O)NC(=O)CCSCC(=O)NCCO[C@@H]2O[C@H](CO)[C@@H](O[C@@H]3O[C@H](CO)[C@@H](O[C@@H]4O[C@H](CO[C@H]5O[C@H](CO)[C@@H](O)[C@H](O)[C@@H]5O[C@@H]5O[C@H](CO)[C@@H](O[C@@H]6O[C@H](CO[C@]7(C(=O)O)C[C@H](O)[C@@H](NC(C)=O)[C@H]([C@H](O)[C@H](O)CO)O7)[C@H](O)[C@H](O)[C@H]6O)[C@H](O)[C@H]5NC(C)=O)[C@@H](O)[C@H](O[C@H]5O[C@H](CO)[C@@H](O)[C@H](O)[C@@H]5O[C@@H]5O[C@H](CO)[C@@H](O[C@@H]6O[C@H](CO[C@]7(C(=O)O)C[C@H](O)[C@@H](NC(C)=O)[C@H]([C@H](O)[C@H](O)CO)O7)[C@H](O)[C@H](O)[C@H]6O)[C@H](O)[C@H]5NC(C)=O)[C@@H]4O)[C@H](O)[C@H]3NC(C)=O)[C@H](O)[C@H]2NC(C)=O)CSSC[C@@H](C(=O)N[C@@H](CC(N)=O)C(=O)N[C@@H](CO)C(=O)N[C@@H](Cc2ccccc2)C(=O)N[C@@H](CCCNC(=N)N)C(=O)N[C@@H](Cc2ccc(O)cc2)C(=O)O)NC(=O)CNC(=O)[C@H](CC(C)C)NC(=O)CNC(=O)[C@H](CO)NC(=O)[C@H](CCC(N)=O)NC(=O)[C@H](C)NC(=O)CNC1=O` [Compound 2-34, SG-thioacetamide-(SG-thioacetamide-)Lys-PEG-(3)-hANP(1-28)], for which, at human GC-A, a half-maximal response (EC50) required 0.53 nM.
The same measure, in the same setting: next, `CC[C@H](C)[C@@H]1NC(=O)[C@H](CCCNC(=N)N)NC(=O)[C@H](CC(=O)O)NC(=O)[C@H](CCSC)NC(=O)[C@H](CCCNC(=N)N)NC(=O)CNC(=O)CNC(=O)[C@H](Cc2ccccc2)NC(=O)[C@@H](NC(=O)[C@H](CO)NC(=O)[C@H](CO)NC(=O)[C@H](CCCNC(=N)N)NC(=O)[C@H](CCCNC(=N)N)NC(=O)[C@H](CC(C)C)NC(=O)[C@H](CO)NC(=O)CCSC2CC(=O)N(CCC(=O)NCCOCCOCCOCCOCCC(=O)N[C@@H](CCC(=O)NCCO[C@@H]3O[C@H](CO)[C@@H](O[C@@H]4O[C@H](CO)[C@@H](O[C@@H]5O[C@H](CO[C@H]6O[C@H](CO)[C@@H](O)[C@H](O)[C@@H]6O[C@@H]6O[C@H](CO)[C@@H](O[C@@H]7O[C@H](CO[C@]8(C(=O)O)C[C@H](O)[C@@H](NC(C)=O)[C@H]([C@H](O)[C@H](O)CO)O8)[C@H](O)[C@H](O)[C@H]7O)[C@H](O)[C@H]6NC(C)=O)[C@@H](O)[C@H](O[C@H]6O[C@H](CO)[C@@H](O)[C@H](O)[C@@H]6O[C@@H]6O[C@H](CO)[C@@H](O[C@@H]7O[C@H](CO[C@]8(C(=O)O)C[C@H](O)[C@@H](NC(C)=O)[C@H]([C@H](O)[C@H](O)CO)O8)[C@H](O)[C@H](O)[C@H]7O)[C@H](O)[C@H]6NC(C)=O)[C@@H]5O)[C@H](O)[C@H]4NC(C)=O)[C@H](O)[C@H]3NC(C)=O)C(=O)NCCO[C@@H]3O[C@H](CO)[C@@H](O[C@@H]4O[C@H](CO)[C@@H](O[C@@H]5O[C@H](CO[C@H]6O[C@H](CO)[C@@H](O)[C@H](O)[C@@H]6O[C@@H]6O[C@H](CO)[C@@H](O[C@@H]7O[C@H](CO[C@]8(C(=O)O)C[C@H](O)[C@@H](NC(C)=O)[C@H]([C@H](O)[C@H](O)CO)O8)[C@H](O)[C@H](O)[C@H]7O)[C@H](O)[C@H]6NC(C)=O)[C@@H](O)[C@H](O[C@H]6O[C@H](CO)[C@@H](O)[C@H](O)[C@@H]6O[C@@H]6O[C@H](CO)[C@@H](O[C@@H]7O[C@H](CO[C@]8(C(=O)O)C[C@H](O)[C@@H](NC(C)=O)[C@H]([C@H](O)[C@H](O)CO)O8)[C@H](O)[C@H](O)[C@H]7O)[C@H](O)[C@H]6NC(C)=O)[C@@H]5O)[C@H](O)[C@H]4NC(C)=O)[C@H](O)[C@H]3NC(C)=O)C2=O)CSSC[C@@H](C(=O)N[C@@H](CC(N)=O)C(=O)N[C@@H](CO)C(=O)N[C@@H](Cc2ccccc2)C(=O)N[C@@H](CCCNC(=N)N)C(=O)N[C@@H](Cc2ccc(O)cc2)C(=O)O)NC(=O)CNC(=O)[C@H](CC(C)C)NC(=O)CNC(=O)[C@H](CO)NC(=O)[C@H](CCC(N)=O)NC(=O)[C@H](C)NC(=O)CNC1=O` (stereo partly drawn) [Compound 2-32, SG-(SG-)Gln*-PEG(3)-Mal-hANP(1-28)]: 0.41 nM.
